{"source": "patent US9249159B2", "about": "“Composition for treating hepatitis C virus, regulating phosphorylation of replicase” (Industry-Academic Cooperation Foundation, Yonsei University, priority 2011, dated 2016)", "key": {"[1]": {"target": "recombinant active PRK2 (Homo sapiens, UniProt Q16513)", "sequence (Q16513 whole entry)": "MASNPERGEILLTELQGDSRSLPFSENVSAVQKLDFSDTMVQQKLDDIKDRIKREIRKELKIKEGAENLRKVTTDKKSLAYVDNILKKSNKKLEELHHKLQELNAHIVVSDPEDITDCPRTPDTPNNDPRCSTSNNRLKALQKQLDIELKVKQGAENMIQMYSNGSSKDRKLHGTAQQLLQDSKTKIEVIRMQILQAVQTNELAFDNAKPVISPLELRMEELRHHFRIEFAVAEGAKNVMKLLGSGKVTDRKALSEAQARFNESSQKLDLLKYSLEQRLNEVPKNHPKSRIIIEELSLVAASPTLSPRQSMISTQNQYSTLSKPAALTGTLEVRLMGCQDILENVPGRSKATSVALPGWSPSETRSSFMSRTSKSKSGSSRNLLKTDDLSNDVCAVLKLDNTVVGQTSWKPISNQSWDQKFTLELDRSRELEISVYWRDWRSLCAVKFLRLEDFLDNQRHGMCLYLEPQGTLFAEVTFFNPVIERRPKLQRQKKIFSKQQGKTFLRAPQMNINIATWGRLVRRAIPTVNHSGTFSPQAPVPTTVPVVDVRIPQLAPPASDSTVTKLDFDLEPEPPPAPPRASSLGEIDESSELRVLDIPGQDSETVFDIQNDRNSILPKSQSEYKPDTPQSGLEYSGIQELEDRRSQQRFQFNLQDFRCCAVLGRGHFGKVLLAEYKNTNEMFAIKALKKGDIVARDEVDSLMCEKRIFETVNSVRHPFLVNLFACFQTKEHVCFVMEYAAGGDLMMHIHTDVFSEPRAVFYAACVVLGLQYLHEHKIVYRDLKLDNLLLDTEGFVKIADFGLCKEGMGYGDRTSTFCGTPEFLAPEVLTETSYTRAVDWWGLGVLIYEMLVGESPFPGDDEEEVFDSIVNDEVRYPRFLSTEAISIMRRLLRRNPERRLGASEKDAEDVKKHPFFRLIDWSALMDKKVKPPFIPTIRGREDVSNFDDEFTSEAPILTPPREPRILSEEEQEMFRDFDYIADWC", "test": "In vitro kinase assay: recombinant PRK2 phosphorylating HCV NS5B", "type": "biochemical", "conditions": "gamma-32P ATP and 100 μM ATP, autoradiography", "protocol": "Then, in order to test an HCV NS5B protein phosphorylation inhibition effect of the screened novel PRK2 inhibitor, in vitro kinase assay was carried out.\nUsing a recombinant active PRK2 and purified HCV NS5B protein as substrates, the screened inhibitors #11 and #17 were treated in the presence of gamma-^32P ATP and 100 μM ATP. The reaction mixture was separated by SDS-PAGE (8% gel), and a result thereof was checked by autoradiography.\nFinally, PRK2 and HCV NS5B phosphorylation inhibition effects of the compounds #18, #19, #20, #21 and #22 as the derivatives of the compound #17 were analyzed through in vitro kinase assay.\nA 1 μM recombinant PRK2 and 10 μM HCV NS5B were phosphorylated for 30 minutes in the presence of 10 μCi γ-^32P ATP and 100 μM ATP. The reaction mixture was separated by SDS-PAGE (8% gel), and a result thereof was checked by autoradiography."}, "[2]": {"test_system": "PDK1", "test": "PDK1 level and activation in R-1 cell by immunoblotting", "type": "cell-based", "conditions": "100 IU/ml, hourly for 6 hours", "source_text": "Total cell lysates from cells treated with inhibitors or IFN-α by using antibodies to PDK1, p-PDK1 (S241), PRK2, and p-PRK2 (T816) (products of Cell Signaling Technology, Inc., Beverly, Mass., USA) was used for immunoblotting. In order to detect PKC isoforms α, β, and γ, a polyclonal antibody to a consensus sequence present in three PKC (protein kinase C) isoforms α, β and γ (anti-pan-PKC; Zymed Laboratories, San Francisco, Calif., USA) was used. An anti-α-tubulin antibody (Oncogene Research Products, Cambridge, Mass., USA) was carried out in immunoblotting for checking whether or not the same amount of protein was loaded.\nTherefore, anti-HCV activity of 17-DMAG in the R-1 cell was tested at a level lower than 50 nM. To do so, the R-1 cell was treated with a vehicle (0.25% DMSO) or 17-DMAG for 72 hours and the cell lysates (50 μg) and antibodies specific to the proteins were immunoblotted to measure levels of the proteins. An anti-α-tubulin antibody (lower end panel) was used as an internal loading control. The levels of the proteins were measured by densitometric analysis of immunoblot, and the phosphorylated amounts and relative intensities calculated with respect to PDK1 and PDK2 were converted with respect to α-tubulin signals and then quantitated. As a result of three independent experiments showing similar results, a representative blot picture was illustrated. […]"}, "[3]": {"target": "T1, PRK2 (Homo sapiens, UniProt Q16513)", "T1 construct": "endogenous in cells; host or cells: R-1 (Huh7-derived HCV replicon cells) and Huh7", "T1 sequence (Q16513 whole entry)": "as above", "test": "PRK2 phosphorylation (Thr816) and PRK2 level in R-1 cells by Western blot", "type": "cell-based", "conditions": "R-1 cell, 100 IU/ml, hourly for 6 hours", "procedure": "After the R-1 cell line was treated with the PRK2 inhibitor at a final concentration of 10 or 20 μM for 48 hours, phosphorylation or not of Thr^816 residue essential for activity of PRK2 was analyzed by Western blot using a phospho-PRK2 antibody to measure an expression level of phosphorylated PRK2. Immunoblotting using an anti-α-tubulin antibody was carried out to check whether or not the same amount of protein was loaded.\nThen, in order to check whether or not IFN-α affected a PDK1-PRK2 signaling pathway, the R-1 cell was treated with 100 IU/ml of IFN-α hourly for 6 hours. SDS-PAGE was carried out to the cell lysates, and immunoblotting was carried out. The immunoblotting with anti-α-tubulin antibody was used as an internal control for loading. A representative result from one of the three independent experiments showing a similar result was illustrated."}, "[4]": {"test_system": "genotype 1b HCV subgenomic replicon (R-1 cell line)", "test": "HCV replication (HCV RNA by real-time RT-PCR, NS5B protein by Western blot) in R-1 subgenomic replicon cells", "type": "cell-based, hepatitis C virus genotype 1b", "conditions": "for decrease of HCV RNA titers with respect to DMSO control: R-1 cell line, 20 μM, 48 hours", "source_text": "In order to check a PRK2 phosphorylation inhibition effect of the novel inhibitors obtained in Example 1, R-1 cell line harboring HCV subgenomic replicons was used.\nThe R-1 cell line was comprised of cis-acting RNA elements of 5′ and 3′-end untranslated regions (UTR) essential for replication of HCV RNA, a selection marker inserted to select a replicated RNA into a portion from which a structural protein coding site was removed, and a non-structural protein (NS3-NS5B)-coding gene required for replication. In the replicon, the selection marker was expressed by the HCV 5′-UTR and internal ribosome entry site (IRES) as a part of a coding gene of a core protein as a structural protein and capsid protein, and HCV non-structural proteins were expressed by IRES of EMCV. In order to obtain replicon cells, a HCV subgenomic replicon RNA was obtained by means of in vitro transcription by using a T7 RNA polymerase, free ribonucleotide was removed by using a spin column, and introduced into a hepatocellular carcinoma cell line by electroporation. In the presence of G418, a stable cell line, i.e. a cell line showing a resistance to G418 through replication of HCV subgenome, was obtained. Expression of the HCV non-structural proteins in this cell line was analyzed by Western blot to confirm that replication was being carried out, and the R-1 cell line was constructed. It was observed that an HCV RNA copy number was about 10^7 copies/mL by a quantitative real-time PCR analysis using a TaqMan probe. The R-1 cell line was a cell line in which HCV RNA replication was being carried out, and thus it could be used to evaluate an HCV replication inhibition effect of a PRK2 activity inhibitor.\nThen, after the R-1 cell line was treated with each of 5 screened PRK2 inhibitors, HA1077 currently and clinically used as a PRK2 activity inhibitor, and Y27632 having a PRK2 activity inhibition effect at a final concentration of 20 μM for 48 hours, levels of HCV NS5B protein and HCV RNA in cell lysates (50 μg) were analyzed by Western blot and real-time RT-PCR.\n(§1) To do so, after the two cell lines were treated with the compound #17 at higher concentrations (60 and 100 μM) than 20 μM for 48 hours, an HCV RNA genome level was checked by a real-time RT-PCR analysis. A value was a mean±standard deviation (SD) of three independent measurements. HCV RNA titer was quantified by real-time PCR analysis. Three independent experiments were performed in triplicate.\n5 derivatives (#18 to #22: refer to FIG. 2) were produced based on the inhibitor #17 showing the best effect. After the R-1 cell line was treated with each of these inhibitors or HA1077 and Y27632 at a final concentration of 20 μM for 48 hours, an HCV RNA genome level was checked by a real-time RT-PCR analysis and expressed in % with respect to a control treated with DSMO. Three independent experiments were conducted repeatedly three times. Data were expressed by mean±SD of the three experiments.\n(§2) Total RNA was extracted from R-1 or HCV (JFH1)-infected cells using TRIzol LS reagent (Invitrogen, Carlsbad, Calif., USA) and purified according to the manufacturer's instructions. HCV RNA levels were quantified by RT-PCR using a primer pair and TaqMan probe targeting a region within the HCV 5′-UTR as described previously. Cellular glyceraldehyde-3-phosphate dehydrogenase was used as an internal control. Assays were performed using the DyNAmo Probe 2-step qRT-PCR Kit (Finnzymes, Espoo, Finland) and a CHROMO4 continuous fluorescence detector (Bio-Rad, Hercules, Calif., USA), according to the manufacturer's instructions.\nTherefore, anti-HCV activity of 17-DMAG in the R-1 cell was tested at a level lower than 50 nM. To do so, the R-1 cell was treated with a vehicle (0.25% DMSO) or 17-DMAG for 72 hours and the cell lysates (50 μg) and antibodies specific to the proteins were immunoblotted to measure levels of the proteins. An anti-α-tubulin antibody (lower end panel) was used as an internal loading control. […]"}, "[5]": {"test_system": "genotype 2a HCV (JFH1)-infected Huh7 cells", "test": "HCV RNA level in Huh7 cells infected with HCV (JFH1)", "type": "cell-based, hepatitis C virus genotype 2a", "conditions": "JFH1-infected Huh7 cell, 100 IU/mL alone, 72 hours", "protocol": "as §1\nFull-length, infectious HCV RNA of the genotype 2a HCV clone JFH1 was prepared by in vitro transcription using the MEGAscript T7 kit (Ambion, Austin, Tex., USA) and electroporated into Huh7 cells as described previously. Briefly, at 72 h post electroporation, culture medium was collected, cleared by low-speed centrifugation, and passed through a 0.45-μm filter (Millipore, Billerica, Mass., USA) before being used for infection of Huh7 cells. Cells were infected with HCV at a multiplicity of infection of 0.3 by adsorption for 3 h with periodic rocking, then washed three times with phosphate-buffered saline (PBS) and maintained in complete DMEM. […]\nas §2, with “Cellular glyceraldehyde-3-phosphate dehydrogenase was used as an internal control.” left out\nIn order to analyze whether or not 17-DMAG can inhibit replication in a cell infected with HCV, an experiment was carried out with the genotype 2a HCV infectious clone JFH1, which produces infectious virions in Huh7 or Huh7-derived cell lines. […] After 72 hours, total cellular RNA was extracted and HCV remaining in the infected cell was analyzed by quantitative RT-PCR."}, "[6]": {"test_system": "PRK2", "test": "PRK2 level in Huh7 cell by immunoblotting", "type": "cell-based", "conditions": "100 IU/ml IFN-α"}, "[7]": {"test_system": "HCV NS5B", "test": "NS5B phosphorylation in Huh7TR-NS cell (anti-p-Ser immunoprecipitation, anti-NS5B immunoblot)", "type": "cell-based, hepatitis C virus", "conditions": "17-DMAG 50 nM or HA1077 20 μM, 48 hours", "protocol": "The human hepatoma stable cell lines Huh7TR-4 and Huh7TR-NS [17], which express the tetracycline repressor and the HCV NS proteins (NS3-NS5) in a tetracycline-inducible manner, respectively, were maintained in the presence of blasticidin S (10 μg/mlL and Zeocine (100 μg/mL). NS protein expression in Huh7TR-NS was induced by addition of 1 μg/mL tetracycline for 24 h. The Huh7 cell-derived cell line R-1, supporting stable, autonomous replication of genotype 1b HCV subgenomic replicon RNA, was described previously. 17-DMAG, the PRK2 inhibitor, HA1077, and the inhibitor of phosphatidylinositol 3-kinase (PI3K), LY294002, were obtained from Sigma-Aldrich (St. Louis, Mo., USA) and Calbiochem Inc. (La Jolla, Calif., USA), and Biomol (Plymouth Meeting, Pa., USA), respectively. IFN-α was purchased from Sigma-Aldrich (1-4276).\nFor co-immunoprecipitation experiment, the cells were resuspended in lysis buffer A (100 mM Tris-HCl, pH 8.0, 150 mM NaCl, 1% Triton X-100, 10 mM NaF, 1 mM Na3VO4, 17.5 mM β-glycerophosphate) supplemented with an EDTA-free protease inhibitor cocktail (Roche Applied Science, Indianapolis, Ind., USA) and incubated on ice for 30 min. […]\nThen, treatment with 17-DMAG (50 nM) or HA1077 (20 μM), a PRK2 inhibitor, was carried out for 48 hours. […] A case without treatment with an inhibitor was expressed as (−)."}}}
{"molecule": "O=C(Nc1ccc2[nH]cnc2c1)C1CCCCC1", "note": "[compound #11, cyclohexanecarboxylic acid (1H-benzoimidazole-5-yl)-amide]", "values": [{"measurement": "inhibition of in vitro phosphorylation of HCV NS5B protein", "setting": "[1]", "value": "inhibit phosphorylation of HCV NS5B protein"}]}
{"molecule": "IFN-α", "values": [{"measurement": "activation of PDK1", "setting": "[2]", "value": "any change in activation of PDK1 in the treated cell was not observed"}, {"measurement": "p-PRK2 content or PRK2 content", "setting": "[3]", "value": "any significant change in p-PRK2 content or PRK2 content was not observed"}, {"measurement": "decrease of content of HCV RNA", "setting": "[4]; R-1 cell, 100 IU/ml alone, 72 hours", "value": "approximately 80%"}, {"measurement": "inhibition of virus RNA replication", "setting": "[5]", "value": "about 90%"}, {"measurement": "PDK1 and PRK2 contents and activation", "setting": "[6]", "value": "A similar result was observed"}]}
{"molecule": "O=C(Nc1ccncc1)c1ccc[nH]c1=O", "note": "[compound 20, 2-oxo-N-(4-pyridinyl)-1,2-dihydro-3-pyridinecarboxamide]", "values": [{"measurement": "decrease of HCV RNA titers with respect to DMSO control", "setting": "[4]", "value": "approximately 60%"}]}
{"molecule": "C[C@@H](N)[C@H]1CC[C@H](C(=O)Nc2ccncc2)CC1", "note": "[Y27632]", "values": [{"measurement": "decrease of HCV RNA titers with respect to DMSO control", "setting": "[4]", "value": 49, "unit": "%"}]}
{"molecule": "O=S(=O)(c1cccc2cnccc12)N1CCCNCC1", "note": "[HA1077]", "values": [{"measurement": "NS5B phosphorylation", "setting": "[7]", "value": "also inhibited NS5B phosphorylation"}, {"measurement": "decrease of HCV RNA titers with respect to DMSO control", "setting": "[4]", "value": 40, "unit": "%"}, {"measurement": "anti-HCV activity in combined treatment with IFN-α", "setting": "[4]; R-1 cell, HA1077 20 μM combined with IFN-α 100 IU/ml", "value": "anti-HCV activity of IFN-α was improved"}]}
